Assay results as given in patent US9221810B2, “Substituted bicyclic aromatic compounds as S-nitrosoglutathione reductase inhibitors” (Nivalis Therapeutics, Inc., priority 2010, dated 2015).

Assays:
[1] = system: cigarette smoke-induced COPD (acute 4 day); test: Acute (4 day) cigarette smoke exposure COPD model; type: in vivo, female C57Bl/6 mice
Procedure: The efficacy of GSNOR inhibitors was assessed in a mouse model of chronic obstructive pulmonary disease (COPD) induced by short duration (4 days or 11 days) of exposure to cigarette smoke. Infiltration of inflammatory cells into the bronchoalveolar lavage fluid (BALF) and BALF levels of chemokines involved in inflammation and tissue turnover/repair were measured to assess the influences of GSNOR inhibitors on some of the early events associated with the initiation and progression of COPD.
Efficacy of GSNOR inhibitors against COPD was explored using acute (4 day) and subchronic (11 day) models of cigarette smoke-induced COPD in mice. […] In animal models, changes in lung pathology are only evident after extended (several months) duration of exposure to cigarette smoke, thus making chronic models prohibitive as effective screening tools. More recently, models exploring inflammatory responses after short duration (2 weeks or less) of smoke exposure in mice have been utilized as tools for screening efficacy and mechanisms of action of novel therapeutics against COPD. The key roles of inflammation in the initiation and progression of COPD, make these short duration models relevant for initial tests of efficacy of novel therapeutics.
Acute (4 Day) Smoke Exposure Model: Female C57Bl/6 mice (N=8 per group) were exposed to cigarette smoke using a whole body exposure chamber. Mice were exposed daily for 4 consecutive days to 4 cycles of smoke from 6 sequential cigarettes (Kentucky 3R4F without filter) with a 30 minute smoke free interval between cycles. GSNOR inhibitors were administered daily via oral dosing at 10 mg/kg/day for 7 days starting 2 days prior to smoke exposure and continuing 1 day post-exposure. The effects of GSNOR inhibitors were assessed by quantitating the numbers of total cells, leukocytes, and leukocytes differentials in the BALF via light microscopy and the levels of BALF chemokines via ELISA at approximately 24 h after the last smoke exposure. The effect of GSNOR inhibitors were compared to vehicle treated controls. The PDE4 inhibitor, roflumilast, was used as the positive control for the study. A group of naïve mice (N=8) was exposed to air and used as a negative control for the study.

[2] = system: mouse model of ovalbumin (OVA)-induced asthma; test: Mouse model of ovalbumin (OVA)-induced asthma: MCh-induced AHR (Penh) and eosinophil infiltrate in BALF; type: in vivo; details: three oral doses of 10 mg/kg at 48 h, 24 h, and 1 h prior to assessment; p<0.05
Procedure: A mouse model of ovalbumin (OVA)-induced asthma was used to screen GSNOR inhibitors for efficacy against methacholine (MCh)-induced bronchoconstriction/airway hyper-responsiveness. This is a widely used and well characterized model that presents with an acute, allergic asthma phenotype with similarities to human asthma. Efficacy of GSNOR inhibitors was assessed using a protocol in which GSNOR inhibitors were administered after OVA sensitization and airway challenge, and prior to challenge with MCh. Bronchoconstriction in response to challenge with increasing doses of MCh was assessed using whole body plethysmography (Penh; Buxco). The amount of eosinophil infiltrate into the bronchoaveolar lavage fluid (BALF) was also determined as a measure of lung inflammation. The effects of GSNOR inhibitors were compared to vehicles and to Combivent (inhaled; IH) as the positive control.
OVA (500 μg/ml) in PBS was mixed with equal volumes of 10% (w/v) aluminum potassium sulfate in distilled water and incubated for 60 min. at room temperature after adjustment to pH 6.5 using 10 N NaOH. After centrifugation at 750×g for 5 min, the OVA/alum pellet was resuspended to the original volume in distilled water. Mice received an intraperitoneal (IP) injection of 100 μg OVA (0.2 mL of 500 μg/mL in normal saline) complexed with alum on day 0. Mice were anesthetized by IP injection of a 0.2-mL mixture of ketamine and xylazine (0.44 and 6.3 mg/mL, respectively) in normal saline and were placed on a board in the supine position. Two hundred fifty micrograms (100 μl of a 2.5 mg/ml) of OVA (on day 8) and 125 μg (50 μl of 2.5 mg/ml) OVA (on days 15, 18, and 21) were placed on the back of the tongue of each animal.
In vivo airway responsiveness to methacholine was measured 24 h after the last OVA challenge in conscious, freely moving, spontaneously breathing mice with whole body plethysmography using a Buxco chamber (Wilmington, N.C.). […] The degree of bronchoconstriction was expressed as enhanced pause (Penh), a calculated dimensionless value, which correlates with the measurement of airway resistance, impedance, and intrapleural pressure in the same mouse. Penh readings were taken and averaged for 4 min. after each nebulization challenge. Penh is calculated as follows: Penh=[(Te/Tr−1)×(PEF/PIF)], where Te is expiration time, Tr is relaxation time, PEF is peak expiratory flow, and PIF is peak inspiratory flow×0.67 coefficient. […]
After measurement of airway hyper-reactivity, the mice were exsanguinated by cardiac puncture, and then BALF was collected from either both lungs or from the right lung after tying off the left lung at the mainstem bronchus. Total BALF cells were counted from a 0.05 mL aliquot, and the remaining fluid was centrifuged at 200×g for 10 min at 4° C. […]

[3] = oral 10 mg/kg/day for 7 days, vs vehicle treated controls, p<0.05

Compound | BALF chemokines ([1]; acute 4 day smoke model) | effects compared to roflumilast (positive control) ([1]; acute 4 day smoke model) | decrease of eosinophils in BALF [1, 3] [%] | decrease of leukocytes in BALF [1, 3] [%] | decrease of macrophages in BALF [1, 3] [%] | decrease of neutrophils in BALF [1, 3] [%] | decrease of total cells in BALF [1, 3] [%] | decrease of eosinophil infiltration in BAL [2]
O=C(O)c1ccc(-c2ccc3cc(O)ccc3n2)cc1 [Example 3, 4-(6-hydroxyquinolin-2-yl)benzoic acid] | restored BALF chemokines towards levels observed in naïve mice | comparable to or greater than those observed for roflumilast | 95 | 80 | 75 | 84 | 66 | 42 % of vehicle control
O=C(O)c1ccc(-c2ccc3cc(O)ccc3n2)c(Cl)c1 [Example 8, 3-chloro-4-(6-hydroxyquinolin-2-yl)benzoic acid] |  |  |  |  |  |  |  | 37 % of vehicle control
